How the values were obtained:
[1] = (§1) The drug is tested on Z-028 corresponding to mouse gut metagenome with ENA study accession number: PRJEB37062 and ENA sample accession number: ERS12561827 for biotransformation under anaerobic condition. The drug concentrations were measured over 9 timepoints collected between 0 and 24 hours of incubation by liquid-chromatography-coupled mass spectrometry (LC–MS); conditions: 2 µM
[2] = as §1, with “Z-023” for “Z-028”, “to” for “to mouse gut”, “ERS12561822” for “ERS12561827”; conditions: 2 µM
[3] = as §1, with “Z-013” for “Z-028”, “rabbit” for “mouse”, “ERS12561813” for “ERS12561827”; conditions: 2 µM
[4] = as §1, with “Z-011” for “Z-028”, “ERS12561811” for “ERS12561827”; conditions: 2 µM
[5] = as §1, with “Z-010” for “Z-028”, “to” for “to mouse gut”, “ERS12561810” for “ERS12561827”; conditions: 2 µM
[6] = as §1, with “Z-008” for “Z-028”, “to” for “to mouse gut”, “ERS12561808” for “ERS12561827”; conditions: 2 µM
[7] = as §1, with “Z-006” for “Z-028”, “ERS12561806” for “ERS12561827”; conditions: 2 µM
[8] = as §1, with “Z-001” for “Z-028”, “ERS12561801” for “ERS12561827”; conditions: 2 µM
[9] = as §1, with “WLS-350” for “Z-028”, “human” for “mouse”, “ERS12561789” for “ERS12561827”; conditions: 2 µM
[10] = as §1, with “WLS-240” for “Z-028”, “human” for “mouse”, “ERS12561773” for “ERS12561827”; conditions: 2 µM
[11] = as §1, with “WLS-039” for “Z-028”, “human” for “mouse”, “ERS12561746” for “ERS12561827”; conditions: 2 µM
[12] = human gut metagenome, 24 h, 2 µM
[13] = human gut metagenome, 24 h, 2 µM; remark: listed apart in the source
[14] = human gut metagenome, 24 h, 2 µM; remark: listed apart in the source
[15] = human gut metagenome, 24 h, 2 µM; remark: listed apart in the source
[16] = human gut metagenome, 24 h, 2 µM; remark: listed apart in the source
[17] = human gut metagenome, 24 h, 2 µM; remark: listed apart in the source
[18] = as §1, with “Z-018” for “Z-028”, “pig” for “mouse”, “ERS12561817” for “ERS12561827”; conditions: 2 µM
[19] = as §1, with “WLS-077” for “Z-028”, “human” for “mouse”, “ERS12561750” for “ERS12561827”; conditions: 2 µM
[20] = human gut metagenome, 24 h, 2 µM; remark: listed apart in the source
Further: call rule not given here.

Row | Compound | Bacterial Biotransformation [1] | Bacterial Biotransformation [2] | Bacterial Biotransformation [3] | Bacterial Biotransformation [4] | Bacterial Biotransformation [5] | Bacterial Biotransformation [6] | Bacterial Biotransformation [7] | Bacterial Biotransformation [8] | Bacterial Biotransformation [9] | Bacterial Biotransformation [10] | Bacterial Biotransformation [11] | Bacterial Biotransformation [12] | Bacterial Biotransformation [13] | Bacterial Biotransformation [14] | Bacterial Biotransformation [15] | Bacterial Biotransformation [16] | Bacterial Biotransformation [17] | Bacterial Biotransformation [18] | Bacterial Biotransformation [19] | Bacterial Biotransformation [20]
1 | CSc1ccc2c(c1)C(N1CCN(C)CC1)Cc1ccccc1S2.O=C(O)/C=C\C(=O)O (stereo not drawn) | Compound NOT metabolized | Compound NOT metabolized | Compound metabolized | Compound metabolized | Compound metabolized | Compound NOT metabolized | Compound metabolized | Compound metabolized | Compound NOT metabolized | Compound NOT metabolized | Compound metabolized | Compound NOT metabolized | Compound NOT metabolized | Compound NOT metabolized | Compound NOT metabolized | Compound NOT metabolized | Compound metabolized | – | – | –
2 | COc1ccc(/C=C/C(=O)Nc2ccccc2C(=O)O)cc1OC | Compound NOT metabolized | Compound metabolized | Compound metabolized | Compound NOT metabolized | Compound metabolized | Compound NOT metabolized | Compound NOT metabolized | Compound NOT metabolized | Compound NOT metabolized | – | Compound metabolized | Compound NOT metabolized | Compound NOT metabolized | Compound NOT metabolized | Compound NOT metabolized | Compound NOT metabolized | Compound NOT metabolized | Compound metabolized | Compound metabolized | Compound NOT metabolized
3 | CCOC(=O)[C@H](CCc1ccccc1)N[C@@H](C)C(=O)N1CCC[C@H]1C(=O)O.O=C(O)/C=C\C(=O)O [ENALAPRIL MALEATE] | Compound NOT metabolized | Compound metabolized | – | – | – | Compound NOT metabolized | Compound NOT metabolized | Compound NOT metabolized | Compound NOT metabolized | Compound NOT metabolized | Compound NOT metabolized | Compound NOT metabolized | Compound NOT metabolized | Compound NOT metabolized | Compound NOT metabolized | Compound NOT metabolized | Compound NOT metabolized | – | Compound NOT metabolized | Compound NOT metabolized
4 | CC(=O)OCC(CCn1cnc2cnc(N)nc21)COC(C)=O [FAMCICLOVIR] | Compound metabolized | Compound metabolized | Compound NOT metabolized | Compound metabolized | Compound metabolized | Compound metabolized | Compound metabolized | Compound NOT metabolized | Compound metabolized | Compound metabolized | Compound metabolized | Compound metabolized | Compound metabolized | Compound metabolized | Compound metabolized | Compound metabolized | Compound metabolized | – | Compound metabolized | Compound metabolized
5 | CN1[C@@H]2CC[C@H]1C[C@@H](OC(=O)[C@H](CO)c1ccccc1)C2 [HYOSCYAMINE] | Compound NOT metabolized | Compound NOT metabolized | Compound NOT metabolized | – | – | – | – | Compound NOT metabolized | – | Compound metabolized | – | – | – | Compound metabolized | Compound NOT metabolized | – | – | Compound NOT metabolized | – | –
6 | COC1=C(OC)C(=O)C(CCCCCCCCCCO)=C(C)C1=O [IDEBENONE] | Compound metabolized | Compound metabolized | Compound metabolized | Compound metabolized | Compound metabolized | – | Compound metabolized | Compound NOT metabolized | Compound metabolized | – | Compound metabolized | Compound metabolized | – | – | Compound metabolized | Compound metabolized | Compound metabolized | Compound metabolized | Compound metabolized | Compound NOT metabolized
7 | C#C[C@]1(OC(C)=O)CC[C@H]2[C@@H]3CCC4=CC(=O)CC[C@@H]4[C@H]3CC[C@@]21C [NORETHINDRONE ACETATE] | Compound metabolized | Compound metabolized | Compound metabolized | Compound metabolized | Compound metabolized | Compound metabolized | Compound metabolized | Compound metabolized | – | Compound metabolized | Compound metabolized | Compound metabolized | – | Compound metabolized | Compound metabolized | Compound metabolized | Compound NOT metabolized | Compound metabolized | – | Compound metabolized
8 | Cc1cc2c(s1)Nc1ccccc1N=C2N1CCN(C)CC1 [OLANZAPINE] | Compound NOT metabolized | Compound NOT metabolized | Compound NOT metabolized | Compound NOT metabolized | Compound NOT metabolized | Compound NOT metabolized | Compound NOT metabolized | Compound metabolized | Compound NOT metabolized | Compound NOT metabolized | Compound NOT metabolized | Compound NOT metabolized | Compound NOT metabolized | Compound NOT metabolized | Compound NOT metabolized | Compound metabolized | – | Compound NOT metabolized | Compound metabolized | Compound NOT metabolized
9 | COc1ccc(Cc2nccc3cc(OC)c(OC)cc23)cc1OC [PAPAVERINE] | Compound NOT metabolized | Compound metabolized | Compound NOT metabolized | Compound NOT metabolized | – | Compound NOT metabolized | Compound NOT metabolized | Compound metabolized | Compound metabolized | – | Compound metabolized | Compound NOT metabolized | Compound metabolized | Compound metabolized | Compound NOT metabolized | Compound NOT metabolized | Compound metabolized | Compound metabolized | Compound NOT metabolized | Compound metabolized
10 | O=C1C(CC[S+]([O-])c2ccccc2)C(=O)N(c2ccccc2)N1c1ccccc1 (stereo not drawn) [SULFINPYRAZONE] | Compound metabolized | Compound metabolized | Compound NOT metabolized | Compound NOT metabolized | – | Compound metabolized | Compound NOT metabolized | Compound NOT metabolized | Compound metabolized | Compound metabolized | Compound metabolized | Compound metabolized | Compound metabolized | Compound metabolized | Compound metabolized | Compound metabolized | Compound metabolized | Compound metabolized | Compound metabolized | Compound metabolized

From ChEMBL document CHEMBL5724914, “Linking interpersonal differences in gut microbiota composition and drug biotransformation activity” (2024)
